Our source for the Ki values is PMC7379272, “Functional analysis of UGT201D3 associated with abamectin resistance in Tetranychus cinnabarinus (Boisduval)” (Insect Science, 2018).

Structures are written as SMILES.

For this experiment, the target named is T1, (UniProt A0A221C6W1).
T1 construct: gene UGT201D3; recombinant pET-28a-UGT201D3q, 15 N-terminal hydrophobic amino acids removed, expressed in E. coli BL21 (DE3), Ni-NTA purified
In words: inhibition of α-naphthol glycosylation by the purified recombinant enzyme, Dixon plot (IC50 […]); HPLC depletion of abamectin. In kind it is biochemical, Tetranychus cinnabarinus.

T1 sequence (A0A221C6W1 16-460 limits assumed): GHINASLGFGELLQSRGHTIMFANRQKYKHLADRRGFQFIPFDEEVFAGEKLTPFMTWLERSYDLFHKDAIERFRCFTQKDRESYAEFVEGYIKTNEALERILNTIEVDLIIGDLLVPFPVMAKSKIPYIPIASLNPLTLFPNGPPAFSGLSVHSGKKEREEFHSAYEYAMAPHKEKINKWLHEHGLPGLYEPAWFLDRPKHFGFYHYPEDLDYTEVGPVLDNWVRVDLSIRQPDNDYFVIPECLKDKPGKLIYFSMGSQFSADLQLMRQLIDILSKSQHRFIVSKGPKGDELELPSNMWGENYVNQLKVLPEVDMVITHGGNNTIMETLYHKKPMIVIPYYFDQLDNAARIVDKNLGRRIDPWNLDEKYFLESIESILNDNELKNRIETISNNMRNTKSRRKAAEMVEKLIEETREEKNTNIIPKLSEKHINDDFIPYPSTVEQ

As for `CC[C@H](C)[C@H]1O[C@]2(C=C[C@@H]1C)C[C@@H]1C[C@@H](C/C=C(\C)[C@@H](O[C@H]3C[C@H](OC)[C@@H](O[C@H]4C[C@H](OC)[C@@H](O)[C@H](C)O4)[C@H](C)O3)[C@@H](C)/C=C/C=C3\CO[C@@H]4[C@H](O)C(C)=C[C@@H](C(=O)O1)[C@]34O)O2.CO[C@H]1C[C@H](O[C@H]2[C@H](C)O[C@@H](O[C@@H]3/C(C)=C/C[C@@H]4C[C@@H](C[C@]5(C=C[C@H](C)[C@@H](C(C)C)O5)O4)OC(=O)[C@@H]4C=C(C)[C@@H](O)[C@H]5OC/C(=C\C=C\[C@@H]3C)[C@]54O)C[C@@H]2OC)O[C@@H](C)[C@@H]1O` [abamectin], the Ki was determined as 9.9 ± 6.2 µM.
